Assay results from ChEMBL document CHEMBL1126121, “Non-prostanoid thromboxane A2 receptor antagonists with a dibenzoxepin ring system. 1” (J Med Chem, 1992).

Assays:
[1] = target: T1, Thromboxane A2 receptor (Homo sapiens) (UniProt P21731); test: Binding affinity for thromboxane A2 receptor by measuring its ability to displace [3H]U-46619 from guinea pig platelets at 0.1 uM; conditions: Cavia porcellus, target entry is the homologue from another species
T1 sequence (whole entry): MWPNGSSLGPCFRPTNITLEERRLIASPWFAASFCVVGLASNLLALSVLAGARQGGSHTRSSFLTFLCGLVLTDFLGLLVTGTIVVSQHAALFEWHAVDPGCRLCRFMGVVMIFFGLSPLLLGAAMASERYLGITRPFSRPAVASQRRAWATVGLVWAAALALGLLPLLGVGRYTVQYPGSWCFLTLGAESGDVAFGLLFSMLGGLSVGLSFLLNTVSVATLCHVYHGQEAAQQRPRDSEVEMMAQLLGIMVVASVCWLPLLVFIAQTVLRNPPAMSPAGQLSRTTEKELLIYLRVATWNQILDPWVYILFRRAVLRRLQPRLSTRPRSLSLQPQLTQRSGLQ

[2] = target: T1, Thromboxane A2 receptor (Homo sapiens); test: Binding affinity for thromboxane A2 receptor by measuring ability to displace [3H]U-46619 from guinea pig platelets at 1 uM; conditions: Cavia porcellus, target entry is the homologue from another species
[3] = target: T1, Thromboxane A2 receptor (Homo sapiens); test: Inhibitory effect against binding thromboxane A2 receptor on guinea pig platelets using [3H]U-46619 as radioligand at 1 uM concentration; conditions: Cavia porcellus, target entry is the homologue from another species
Cavia porcellus [4] = test: Inhibitory effect of the compounds on U-46619-induced platelet aggregation ex vivo in guinea pig at the dose of 10 mg/kg 4 hr after oral administration; assay type: functional
Cavia porcellus [5] = test: Inhibitory effect of the compounds on U-46619-induced platelet aggregation ex vivo in guinea pig at the dose of 10 mg/kg 2 hr after oral administration; assay type: functional
Cavia porcellus [6] = test: Inhibitory effect of the compounds on U-46619-induced platelet aggregation ex vivo in guinea pig at the dose of 10 mg/kg 7 hr oral after administration; assay type: functional
[7] = system: Thromboxane-A synthase (Bos taurus); test: Inhibitory effect against thromboxane A2 synthase from bovine platelets at 10 uM concentration
[8] = target: T2, Thromboxane-A synthase (Homo sapiens) (UniProt P24557); test: Inhibitory activity against thromboxane A2 synthase obtained from bovine platelet microsomes at 10 uM; conditions: Bos taurus, target entry is the homologue from another species
T2 sequence (whole entry): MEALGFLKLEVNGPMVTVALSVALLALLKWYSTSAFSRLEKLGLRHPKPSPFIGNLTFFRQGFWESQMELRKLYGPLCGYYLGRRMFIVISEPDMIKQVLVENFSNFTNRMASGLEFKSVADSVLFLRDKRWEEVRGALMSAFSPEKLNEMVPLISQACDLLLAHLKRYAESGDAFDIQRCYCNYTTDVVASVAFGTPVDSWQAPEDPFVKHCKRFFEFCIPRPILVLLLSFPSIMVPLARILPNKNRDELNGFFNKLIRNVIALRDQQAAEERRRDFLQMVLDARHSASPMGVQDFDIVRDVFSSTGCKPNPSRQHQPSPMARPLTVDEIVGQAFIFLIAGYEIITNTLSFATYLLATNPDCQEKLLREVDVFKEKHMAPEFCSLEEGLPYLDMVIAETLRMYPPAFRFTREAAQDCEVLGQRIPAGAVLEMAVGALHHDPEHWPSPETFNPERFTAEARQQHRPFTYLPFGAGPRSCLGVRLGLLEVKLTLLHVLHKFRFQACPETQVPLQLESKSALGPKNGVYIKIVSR

Cavia porcellus [9] = test: Compound was tested ex vivo for it''s inhibition of U-46619 induced platelet aggregation in the guinea pig after 4 hr of administration at dose 10 mg/kg; assay type: functional
Cavia porcellus [10] = test: Compound was tested ex vivo for it''s inhibition of U-46619 induced platelet aggregation in the guinea pig after 2 hr of administration at dose 10 mg/kg; assay type: functional
Cavia porcellus [11] = test: Compound was tested ex vivo for it's inhibition of U-46619 induced platelet aggregation in the guinea pig after 2 hr of administration at dose 10 mg/kg; assay type: functional

Structure (SMILES) | inhibition [1] [%] | inhibition [2] [%] | inhibition [3] [%] | Platelet aggregation (Cavia porcellus [4]) [%] | Platelet aggregation (Cavia porcellus [5]) [%] | Platelet aggregation (Cavia porcellus [6]) [%] | inhibition [7] [%] | inhibition [8] [%] | Aggregation (Cavia porcellus [9]) [%] | Aggregation (Cavia porcellus [10]) [%] | Aggregation (Cavia porcellus [11]) [%]
CN(CCSC1c2ccccc2COc2ccc(C(=O)O)cc21)S(=O)(=O)c1ccccc1 (stereo unspecified) | 73 | 92 | 92 |  |  |  |  |  |  |  | 
O=C(O)c1ccc2c(c1)C(SCCNS(=O)(=O)/C=C/c1ccccc1)c1ccccc1CO2 (single isomer, unassigned; (+)) |  |  |  | 2.3 | 0 | 10.7 |  |  |  |  | 
O=C(O)c1ccc2c(c1)C(SCCNS(=O)(=O)c1ccc([N+](=O)[O-])cc1)c1ccccc1CO2 (stereo unspecified) | 58 | 90 | 90 |  |  |  | 41 | 41 |  |  | 
COc1ccccc1C(=O)NCCSC1c2ccccc2COc2ccc(C(=O)O)cc21 (stereo unspecified) | 86 | 97 | 97 |  |  |  |  |  |  |  | 
O=C(O)c1ccc2c(c1)C(SCCNS(=O)(=O)c1cccc([N+](=O)[O-])c1)c1ccccc1CO2 (stereo unspecified) | 83 | 93 | 93 |  |  |  | 54 | 54 |  |  | 
O=C(O)c1ccc2c(c1)C(SCCNS(=O)(=O)c1ccc(F)cc1)c1ccccc1CO2 (stereo unspecified) | 61 | 93 | 93 |  |  |  | 33 | 33 |  |  | 
CCCCCC(=O)NCCSC1c2ccccc2COc2ccc(C(=O)O)cc21 (stereo unspecified) | 51 | 88 | 88 |  |  |  | 4 | 4 |  |  | 
COc1ccc(S(=O)(=O)NCCSC2c3ccccc3COc3ccc(C(=O)O)cc32)cc1 (stereo unspecified) | 83 | 93 | 93 |  |  |  | 75 | 75 |  |  | 
COc1ccc(OC)c(S(=O)(=O)NCCSC2c3ccccc3COc3ccc(C(=O)O)cc32)c1 (stereo unspecified) | 66 | 92 | 92 |  |  |  | 62 | 62 |  |  | 
Cc1ccc(S(=O)(=O)NCCSC2c3ccccc3COc3ccc(C(=O)O)cc32)cc1 (stereo unspecified) | 76 | 93 | 93 |  |  |  | 77 | 77 |  |  | 
COc1cccc(OC)c1C(=O)NCCSC1c2ccccc2COc2ccc(C(=O)O)cc21 (stereo unspecified) | 20 | 72 | 72 |  |  |  |  |  |  |  | 
O=C(O)Cc1ccc2c(c1)C(SCCNS(=O)(=O)c1ccccc1)c1ccccc1CO2 (stereo unspecified) | 30 | 84 |  |  |  |  |  | 13 |  |  | 
Cc1ccsc1C(=O)NCCSC1c2ccccc2COc2ccc(C(=O)O)cc21 (stereo unspecified) | 81 | 94 | 94 |  |  |  | 79 | 79 |  |  | 
O=C(O)c1ccc2c(c1)C(SCCNS(=O)(=O)c1ccccc1[N+](=O)[O-])c1ccccc1CO2 (stereo unspecified) | 72 | 99 | 99 |  |  |  | 79 | 72 |  |  | 
COc1ccc(S(=O)(=O)NCCSC2c3ccccc3COc3ccc(C(=O)O)cc32)cc1OC (stereo unspecified) | 49 | 91 | 91 |  |  |  | 70 | 70 |  |  | 
O=C(O)c1ccc2c(c1)C(SCCNS(=O)(=O)c1ccc(C(F)(F)F)cc1)c1ccccc1CO2 (stereo unspecified) | 70 | 92 | 92 |  |  |  | -9 | -9 |  |  | 
O=C(O)c1ccc2c(c1)C(SCCNS(=O)(=O)c1ccc(Cl)cc1)c1ccccc1CO2 (stereo unspecified) | 64 | 94 | 94 |  |  |  | 79 | 79 |  |  | 
O=C(O)c1cccc(C(SCCNS(=O)(=O)c2ccccc2)c2ccccc2)c1 (stereo unspecified) | 41 | 85 | 85 |  |  |  | 19 | 19 |  |  | 

Structure (SMILES) | inhibition [1] [%] | inhibition [2] [%] | inhibition [3] [%] | Platelet aggregation (Cavia porcellus [4]) [%] | Platelet aggregation (Cavia porcellus [5]) [%] | Platelet aggregation (Cavia porcellus [6]) [%] | inhibition [7] [%] | inhibition [8] [%] | Aggregation (Cavia porcellus [9]) [%] | Aggregation (Cavia porcellus [10]) [%] | Aggregation (Cavia porcellus [11]) [%]
O=C(NCCSC1c2ccccc2COc2ccc(C(=O)O)cc21)Nc1ccccc1 (stereo unspecified) | 67 | 98 | 98 |  |  |  | 58 | 58 |  |  | 
O=C(O)c1ccc2c(c1)C(SCC/N=C(\S)NCc1ccccc1)c1ccccc1CO2 (stereo unspecified) | 80 | 96 | 96 |  | 61.7 |  | 92 | 92 | 61.7 |  | 
O=C(O)c1ccc2c(c1)C(SCCNS(=O)(=O)c1cccnc1)c1ccccc1CO2 (stereo unspecified) | 67 | 93 | 93 |  |  |  |  |  |  |  | 
O=C(O)c1ccc2c(c1)C(SCCNS(=O)(=O)c1ccccc1)c1ccccc1OC2 (stereo unspecified) | 21 | 64 | 64 |  |  |  | 53 | 53 |  |  | 
Cc1ccc2c(c1)C(SCCNS(=O)(=O)c1ccccc1)c1ccccc1CO2 (stereo unspecified) | 1 | 27 | 27 |  |  |  | -10 | -10 |  |  | 
O=C(O)c1ccc2c(c1)C(SCCNS(=O)(=O)c1cccc3cccnc13)c1ccccc1CO2 (stereo unspecified) | 44 | 90 | 90 |  |  |  | 63 | 63 |  |  | 
O=C(O)c1ccc2c(c1)C(SCCNC(=O)C1CCCCC1)c1ccccc1CO2 (stereo unspecified) | 20 | 66 | 66 |  |  |  | 19 | 19 |  |  | 
O=C(O)c1ccc2c(c1)C(SCCNS(=O)(=O)c1ccccc1)c1ccccc1CS2 (stereo unspecified) | 94 | 99 | 99 | 0 | 0 |  |  |  | 0 | 0 | 
COc1cc(C(=O)NCCSC2c3ccccc3COc3ccc(C(=O)O)cc32)cc(OC)c1OC (stereo unspecified) | 50 | 87 | 87 |  |  |  | 92 | 92 |  |  | 
O=C(O)c1ccc2c(c1)C(SCCNS(=O)(=O)c1ccccc1)c1cc(Br)ccc1CO2 (stereo unspecified) | 75 | 94 | 94 |  | 41 |  | 6 | 6 |  |  | 41
O=C(O)c1ccc2c(c1)C(SCCNS(=O)(=O)c1ccccc1)c1ccccc1C=C2 (stereo unspecified) | 67 | 97 | 97 |  |  |  | 74 | 74 |  |  | 
O=C(O)c1ccc2c(c1)OCc1ccccc1C2SCCNS(=O)(=O)c1ccccc1 (stereo unspecified) | -3 | 36 | 36 |  |  |  | 96 | 96 |  |  | 
O=C(O)c1ccc2c(c1)C(SCCNS(=O)(=O)c1ccccc1)c1ccccc1CC2 (stereo unspecified) | 71 | 95 | 95 |  |  |  | 68 | 68 |  |  | 
O=C(O)c1ccc2c(c1)C(SCCNC(=O)c1ccccc1)c1ccccc1CO2 (stereo unspecified) | 69 | 92 | 92 |  | 68.3 |  | 63 | 63 |  | 68.3 | 
COc1ccc(C(=O)NCCSC2c3ccccc3COc3ccc(C(=O)O)cc32)c(OC)c1OC (stereo unspecified) | 82 | 97 | 97 |  |  |  |  |  |  |  | 
O=C(NCCSC1c2ccccc2COc2ccc(C(=O)O)cc21)NCc1ccccc1 (stereo unspecified) | 47 | 87 | 87 |  |  |  | 41 | 41 |  |  | 
O=C(O)c1ccc2c(c1)C(SCCNC(=O)c1ccccc1O)c1ccccc1CO2 (stereo unspecified) | 90 | 99 | 99 |  | 64.5 |  | 53 | 53 |  | 64.5 | 
